This test deals with adjuvant-induced arthritis in rats. In words: Established adjuvant-induced arthritis in rats. The class given is in vivo, rat (Charles River Lewis male rats). The conditions noted are these: for ED50: Rattus norvegicus, 24 h, read-out: Adjuvant Arthritis ED50; for % reduction at the indicated dose (paw volume, Adjuvant Arthritis): 9 mg/kg.
Where [1] appears, read: oral by gavage, 7 daily doses, ED50% decrease from control paw volume (uninjected left hind paw), read one day after last dose.

Like-named read-outs stand apart in the source and are kept apart here.

For `CC(=O)Oc1ccccc1C(=O)O` [Aspirin, aspirin, reference compound], for the setting “po”, the ED50 turned out to be 305 mg/kg.

On to `FC(F)C(F)(F)Sc1nc2c([nH]1)COc1cc(Cl)c(Cl)cc1-2` [Example 1, 7,8-Dichloro-3,4-dihydro(or 1,4-dihydro)-2-[(1,1,2,2-tetrafluoroethyl)-thio]-[1]benzopyrano[3,4-d]imidazole], for which the ED50 under setting [1] came to 8.2 mg/kg.

With `O=S(=O)(c1nc2c([nH]1)COc1cc(Cl)c(Cl)cc1-2)C(F)(F)C(F)F` [Example 2, 7,8-Dichloro-3,4-dihydro(or 1,4-dihydro)-2-[(1,1,2,2-tetrafluoroethyl)sulfonyl]-[1]benzopyrano[3,4-d]imidazole], under setting [1], the ED50 amounted to 3.1 mg/kg.

`FC(F)C(F)(F)Sc1nc2c([nH]1)COc1ccc(Cl)cc1-2` [Example 4]: the 50% effective dose (ED50) under setting [1] is more than 9 mg/kg. Under “oral by gavage, 7 daily doses”, the “% reduction at the indicated dose (paw volume, Adjuvant Arthritis)” value worked out at 30%.

As for `Fc1ccc2c(c1)OCc1[nH]c(SC(F)(F)C(F)F)nc1-2` [Example 5], the median effective dose (ED50) under setting [1] turned out to be 50 mg/kg.

For `O=S(=O)(c1nc2c([nH]1)COc1cc(F)ccc1-2)C(F)(F)C(F)F` [Example 6], under setting [1], the median effective dose (ED50) is more than 9 mg/kg. Also, the “% reduction at the indicated dose (paw volume, Adjuvant Arthritis)” value (oral by gavage, 7 daily doses) was 22%.

Consider `CC(C)Cc1ccc(C(C)C(=O)O)cc1` (centres unmarked) [Ibuprofen, ibuprofen, reference compound], for which the ED50 under setting [1] amounted to 100 mg/kg.

As to `COc1ccc2c(c1)c(CC(=O)O)c(C)n2C(=O)c1ccc(Cl)cc1` [Indomethacin, indomethacin, reference compound], for the setting “po”, the ED50 worked out at 0.3 mg/kg.

Consider `CCCCC1C(=O)N(c2ccccc2)N(c2ccccc2)C1=O` [Phenylbutazone, phenylbutazone, reference compound], for which the ED50 under setting [1] was 10 mg/kg.

A word on the ED50: it is the dose that gives a 50% effect, or the effect in half of the subjects.

Values taken from patent publication US4305954A, “Antiinflammatory 3,4-dihydro(or 1,4-dihydro)-2-[(substituted)thio]-[1]benzopyrano[3,4-d]imidazoles and their corresponding sulfoxides and sulfones” (E. I. Du Pont de Nemours and Company, priority 1981, dated 1981).
